From patent US11828750B2, “Material for screening for compound acting on ION channel and use thereof” (PUBLIC UNIVERSITY CORPORATION NAGOYA CITY UNIVERSITY, priority 2016, dated 2023)

Key:
hTREK-1 = biological target: T1, hTREK-1 (Homo sapiens, UniProt O95069); experiment: Cell death assay (MTT method) in TREK-1 test cells (hTREK-1#Kir 2.1#mutated Nav HEK293 cells); format: cell-based; settings: 37° C.
T1 construct: expressed in transfected cells; host or cells: HEK293 cells stably expressing Kir 2.1 and Nav 1.5 IFM/QQQ; hTREK-1 in pcDNA3.1(+)
T1 sequence (O95069 1-422 isoform O95069-3): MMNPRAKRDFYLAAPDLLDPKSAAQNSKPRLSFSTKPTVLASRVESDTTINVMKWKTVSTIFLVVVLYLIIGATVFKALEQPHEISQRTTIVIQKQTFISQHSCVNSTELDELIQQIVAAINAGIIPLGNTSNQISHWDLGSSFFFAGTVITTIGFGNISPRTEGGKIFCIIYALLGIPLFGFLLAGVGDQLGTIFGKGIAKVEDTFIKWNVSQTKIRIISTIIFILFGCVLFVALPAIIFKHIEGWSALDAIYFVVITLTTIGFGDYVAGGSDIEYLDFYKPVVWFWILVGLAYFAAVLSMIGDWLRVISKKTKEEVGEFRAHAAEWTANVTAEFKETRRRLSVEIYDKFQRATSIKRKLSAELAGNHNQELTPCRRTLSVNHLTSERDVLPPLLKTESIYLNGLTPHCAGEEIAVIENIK
Procedure: (Cell Culture and Gene Insertion) Human-derived embryonic kidney cells (HEK293 cells) were purchased from the Health Sciences Research Resource Bank (HSRRB). 10% fetal bovine serum (FBS, Gibco Corp.) was added thereto followed by culturing at 37° C. in 5% CO2 in Dulbecco's Modified Eagle Medium (D-MEM, Wako Pure Chemical Industries, Ltd.) containing 100 U/ml penicillin (Wako Pure Chemical Industries, Ltd.) and 100 μg/ml streptomycin (Meiji Seika Kaisha, Ltd.). pcDNA3.1/Kir 2.1, obtained by subcloning human-derived Kir 2.1 (NM #000891) in pcDNA3.1(+) (Invitrogen Corp.), was inserted using Lipofectamine 2000 (Invitrogen Corp.) followed by culturing in medium obtained by adding 0.2 mg/ml Zeocin (Invitrogen Corp.) to the above-mentioned D-MEM medium and then cloning Zeocin resistant cells to prepare Kir 2.1 constantly expressing cells (HEK#Kir). In addition, the deactivation mutant Nav 1.5 IFM/QQQ was inserted into the Kir 2.1 constantly expressing cells using the same method (HEK#Kir#mutated Nav).
Proceeding as above, hTREK-1#Kir 2.1 #mutated Nay cells (referred to herebelow as TREK-1 test cells) were prepared by subcloning hTREK-1 (GenBank Accession Number: NM #001017424), a type of human-derived K2P channel, in pcDNA3.1(+) and inserting it in the previously prepared Kir 2.1 #mutated Nav cells. […]

hTASK-1 = experiment: Cell death assay in TASK-1 test cells (hTASK-1 transiently expressing Kir 2.1#mutated Nav cells); format: cell-based, human
Procedure: With the TREK-1 test cells, the culture medium was replaced with measurement buffer (137 mM NaCl, 5.9 mM KCl, 2.2 mM CaCl2, 1.2 mM MgCl2, 14 mM glucose, 10 mM HEPES (pH 7.4 with NaOH), this also applies in the following) and BaCl2 was added to provide 200 μM Ba ion, a Kir 2.1 inhibitor. This was followed by incubation for approximately 12 hours under conditions of 37° C., atmospheric pressure, and 5% CO2 and monitoring of cell death. […] The measurement of cell death was carried out using the MTT method with reference to a paper by the present inventors (Yamazaki, D., et al., Am J Physiol Cell Physiol 300, C75-86, 2011).
hTASK-1 (the Δi20 mutant was used due to poor transfer to the cell membrane by the wild type, resulting in the problems of a small current and measurement difficulties. This mutant is reported to readily transfer to the membrane. Renigunta et al., Traffic 7:168-181, 2006) and hTASK-3 (GenBank Accession Number: NM #001282534), which are types of human-derived K2P channels, were subcloned in a baculovirus vector, a viral vector, and were inserted into the Kir 2.1 #mutated Nav cells prepared in Second Embodiment to prepare hTASK-1 transiently expressing TASK-1#Kir 2.1 #mutated Nav cells and hTASK-3 transiently expressing hTASK-3#Kir 2.1 #mutated Nav cells (referred to herebelow as TASK-1 test cells and TASK-3 test cells), respectively, which transiently expressed hTASK-1 and hTASK-3. Sf-900 III SFM (Thermo Fisher Scientific) was used for the culture medium for baculovirus vector production, and Dulbecco's Modified Eagle Medium (D-MEM) culture medium supplemented with 10% fetal bovine serum (FBS) was used as the culture medium for the test cells.
For TASK-3 this was the same as the literature value of 35 nM (Coburn et al., Chem Med Chem., 7(1), 123-33, 2012).

hTASK-3 = biological target: T2, hTASK-3 (Homo sapiens, UniProt Q9NPC2); experiment: Cell death assay in TASK-3 test cells (hTASK-3 transiently expressing Kir 2.1#mutated Nav cells); format: cell-based; settings: 200 μM Ba ion
T2 construct: expressed in transfected cells; host or cells: HEK293 Kir 2.1 + mutated Nav cells, transient expression via baculovirus vector
T2 sequence (Q9NPC2 whole entry): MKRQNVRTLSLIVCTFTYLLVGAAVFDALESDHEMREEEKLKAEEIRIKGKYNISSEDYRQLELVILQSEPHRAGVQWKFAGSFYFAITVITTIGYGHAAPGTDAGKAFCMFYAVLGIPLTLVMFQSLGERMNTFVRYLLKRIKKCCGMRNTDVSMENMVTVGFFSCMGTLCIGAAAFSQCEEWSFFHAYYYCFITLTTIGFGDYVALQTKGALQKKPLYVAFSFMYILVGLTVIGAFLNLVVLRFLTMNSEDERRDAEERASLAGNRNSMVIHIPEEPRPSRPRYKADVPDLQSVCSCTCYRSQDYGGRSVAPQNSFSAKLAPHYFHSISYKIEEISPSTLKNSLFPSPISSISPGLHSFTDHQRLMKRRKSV
From the text: Sf-900 III SFM (Thermo Fisher Scientific) was used for the culture medium for baculovirus vector production, and Dulbecco's Modified Eagle Medium (D-MEM) culture medium supplemented with 10% fetal bovine serum (FBS) was used as the culture medium for the test cells.

hSK4 = biological target: T3, hSK4 (Homo sapiens, UniProt O15554); experiment: Cell death assay in SK4 test cells (Kir 2.1+IFM/QQQ+SK4 cells); format: cell-based; settings: in the presence of 100 nM Ca ion
T3 construct: expressed in transfected cells; host or cells: HEK293 Kir 2.1 + mutated Nav cells, transient expression via baculovirus vector
From the text: (§1) hSK2 and hSK4, which are each one type of human-derived Ca ion-activated ion channel, were respectively subcloned in a baculovirus vector, which is a viral vector, and were inserted into the Kir 2.1 #mutated Nav cells prepared in Second Embodiment to prepare hSK2 transiently expressing Kir 2.1+IFM/QQQ+SK2 cells (referred to herebelow as SK2 test cells) and hSK4 transiently expressing Kir 2.1+IFM/QQQ+SK4 cells (referred to herebelow as SK4 test cells). Sf-900 III SFM (Thermo Fisher Scientific) was used for the culture medium for baculovirus vector production, and Dulbecco's Modified Eagle Medium (D-MEM) culture medium supplemented with 10% fetal bovine serum (FBS) was used as the culture medium for the test cells.

hSK2 = biological target: T4, hSK2 (Homo sapiens, UniProt Q9H2S1); experiment: Cell death assay in SK2 test cells (Kir 2.1+IFM/QQQ+SK2 cells); format: cell-based
T4 construct: expressed in transfected cells; host or cells: HEK293 Kir 2.1 + mutated Nav cells, transient expression via baculovirus vector
From the text: as §1

TASK-1 = TASK-1 (Homo sapiens, UniProt O14649); settings: Zou et al. 2010; read-out: reported IC50 for TASK-1; cited from earlier work
Chain of TASK-1 (O14649 whole entry, species assumed): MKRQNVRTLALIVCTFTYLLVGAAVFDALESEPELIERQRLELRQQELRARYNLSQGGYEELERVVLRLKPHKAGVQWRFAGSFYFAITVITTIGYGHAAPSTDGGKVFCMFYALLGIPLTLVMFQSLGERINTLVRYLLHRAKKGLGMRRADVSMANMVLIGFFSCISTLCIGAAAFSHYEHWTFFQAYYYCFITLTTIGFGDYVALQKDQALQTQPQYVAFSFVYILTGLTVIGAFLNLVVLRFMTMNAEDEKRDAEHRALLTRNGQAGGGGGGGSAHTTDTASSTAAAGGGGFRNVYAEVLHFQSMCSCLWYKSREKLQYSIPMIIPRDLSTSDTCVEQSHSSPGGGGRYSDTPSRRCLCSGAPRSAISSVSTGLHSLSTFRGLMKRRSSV

Molecule: Nc1ncnc2c1nc(Br)n2[C@@H]1O[C@@H]2COP(=O)(O)O[C@H]2[C@H]1O [8-Br-cAMP]
- cell death on supply of TREK-1 inhibitor (hTREK-1; in the presence of 200 μM Ba ion, approximately 12 hours, MTT method): Cell death was observed

Molecule: [Ba+2].[Cl-].[Cl-] [Ba ion, BaCl2]
- cell death with Ba ion alone (hTREK-1; 200 μM Ba ion, TREK-1 test cells): cell death was not produced
- cell death with Ba ion alone (hTASK-1; 200 μM Ba ion): cell death was not produced
- cell death with Ba ion alone (hTASK-3): cell death was not produced

Molecule: CCn1c(=O)[nH]c2cc(Cl)c(Cl)cc21 [DCEBIO, 5,6-dichloro-1-ethyl-1,3-dihydro-2H-benzimidazole-2-one]
- cell death of SK4 test cells on addition of activator (hSK4): cell death of the SK4 test cells was inhibited

Molecule: O=C1Nc2c(ccc(Cl)c2Cl)C1=NO [NS309, 3-oxime-6,7-dichloro-1H-indole-2,3-dione]
- cell death of SK2 test cells on addition of activator (hSK2; in the presence of 100 nM Ca ion): cell death of the SK2 test cells was inhibited

Molecule: c1cc2cc(c1)C[n+]1ccc(c3ccccc31)NCc1ccc(cc1)CNc1cc[n+](c3ccccc13)C2 [UCL1684]
- effect of inhibitor on NS309-mediated inhibition of cell death (hSK2; added together with NS309, 100 nM Ca ion): the NS309-mediated inhibition of cell death was extinguished

Molecule: ML365
- induction of cell death by inhibitor (hTASK-1; in the presence of 200 μM Ba ion): cell death was observed in a concentration-dependent regime
- concentration above which a sharp increase in the induction of cell death occurred (hTASK-1; in the presence of Ba ion): > 11.5 nM
- IC50 (TASK-1): 0.012 µM
